# Laboratory results reported in patent US4837342A, “Prostacyclin analogue, and blood circulation improving agent and anti-ulcer composition containing it as active ingredient” (Sagami Chemical Research Center, priority 1986, dated 1989).
# Legend:
# diastolic blood pressure [1] = assay: Hypotensive activity, anesthetized dog; assay type: in vivo, crossbred adult dog; details: Canis lupus familiaris, iv, read-out: Hypotensive activity ED50 (dose reducing diastolic blood pressure by 50 mmHg); heading: Hypotensive activity ED50; dog; femoral vein; Table 1
# Protocol: A male or female crossbred adult dog having a weight of from 9 to 14 kg was anesthetized by intraveous administration of sodium Pentobarbital. Then, the left carotid was exposed under artificial respiration, and the blood pressure was measured by using an electric blood pressure meter. […]
# [2] = tested on: Blood platelet (ADP agglutination); assay: Blood platelet agglutination inhibiting activity (ADP-induced), washed rabbit platelet suspension; assay type: cell-based, rabbit (Japanese white male rabbits); details: Oryctolagus cuniculus, Platelet; ADP 10 μM; concentration suppressing agglutination to 50%; read-out: Platelet agglutination inhibiting activity ED50, ADP agglutination
# Protocol: Blood platelet aggutination inhibiting activity
# Japanese white male rabbits having a weight of from 2.0 to 2.5 kg were used.
# Under anesthesia with sodium Pentobarbital, blood was sampled from the carotid artery, and mixed with a 1/7 volume of an anticoagulant citric acid dextrose solution. Then, the mixture was subjected to centrifugal separation at 140×g for 15 minutes, whereupon the supernatant (platelet rich plasma:PRP) was obtained. PRP was subjected to centrifugal separation at 1,300×g for 7 minutes. The blood platelet pellets thus obtained were washed with a HEPES buffer solution (pH 6.5) for washing blood platelets, and subjected to centrifugal separation at 1,300×g for 7 minutes. The blood platelet pellets washed twice under such condition, were suspended in a suspending liquid (a buffer solution for washing blood platelets, which contains 0.1% of human fibrinogen, 1.8 mM of CaCl2 and 1.2 mM of MgCl2) to obtain a blood platelet suspension having a concentration of from 5×10^8 to 8×10^8 platelets/ml.
# The platelet agglutination ability was measured by means of an agglutination meter. To 380 μl of the platelet suspension, 10 μl of a test compound or a solvent as the control, was added. Three minutes later, 10 μl of a platelet agglutinating substance (10 μM of ADP or 1 μg/ml of collagen, as the final concentration) was added thereto to induce agglutination.
# The blood platelet agglutination inhibiting activity of each test compound was represented by ED50 (i.e. the concentration of the test compound where the platelet agglutination is suppressed to 50%).
# [3] = background; cited from earlier work
# diastolic blood pressure [4] = details: background statement; cited from earlier work
# Hydrochloric acid ulcer = Hydrochloric acid ulcer inhibiting activity; assay type: in vivo, wister rats; details: rat; oral administration of 30 μg/kg
# Protocol: Hydrochloric acid ulcer inhibiting activity
# Male wister […] having a weight of from 190 to 240 g were used. The rats were starved in the same manner as in Test Example 6, and the test compounds and PGE2 were, respectively, orally administered in an amount of 30 μg/kg, and 30 minutes later, 1 ml of 0.6N hydrochloric acid was orally administered. Thirty minutes after the hydrochloric acid administration, each rat was killed by cervical vertebral luxation. Then, the stomach was taken out and fixed, and the ulcer index was obtained, in the same manner as in Test Example 6. The hydrochloric acid ulcer inhibiting activity of a test compound was represented by the inhibiting percentage (i.e. the percentage of the ulcer index of the treated group to the ulcer index of the non-treated group). To the non-treated group, the solvent was administered.
# Ethanol ulcer = Ethanol ulcer inhibiting activity; assay type: in vivo, Male wister rats; details: rat; oral administration of 30 μg/kg
# Protocol: Ethanol ulcer inhibiting activity
# Male wister rats having a weight of from 170 to 270 g were put into individual cages and starved for 24 hours. During this starvation period, the rats were allowed to drink water freely. A test compound or PGE2 as a comparative compound was orally administered in an amount of 3, 10 or 30 μg/kg, and 30 minutes later, 1 ml of 99.5% ethanol was orally administered to each rat. One hour after the ethanol administration, each rat was filled by cervical vertebral luxation, and the stomach was taken out. A 1% formaline solution was injected into the stomach in an amount of about 8 ml, and the stomach was fixed in the formaline solution for 30 minutes. After the fixing, the stomach was severed along the greater curvature, and the mucous membrane surface of the stomach was gently washed with flowing water. Then, the total length of damages appearing on the gastric glandular portion was obtained and used as the ulcer index.
# The ethanol ulcer inhibiting activity of a test compound was represented by ED50 (i.e. the dose of the test compound at which the ulcer was inhibited by 50% relative to the ulcer index of the non-treated group). To the non-treated group, the solvent was administered.
smiles,measurement,setting,value
"CCCCC[C@H](O)/C=C/[C@@H]1[C@H]2C/C(=C/CCCC(=O)O)O[C@H]2C[C@H]1O [Prostacyclin, (5Z,13E)-(9α,11α,15S)-6,9-epoxy-11,15-dihydroxyprosta-5,13-diene acid]",ED (50 mmHg),diastolic blood pressure [1],0.24 µg/kg
same,IC50,[2],2.9 nM
same,Chemical stability (in words),[3],very unstable
same,Hypotensive activity of prostacyclin (in words),diastolic blood pressure [4],remarkable hypotensive activities
same,Hydrochloric acid ulcer inhibition (in words),Hydrochloric acid ulcer,No inhibiting activity
same,Ethanol ulcer inhibition (in words),Ethanol ulcer,No inhibiting activity
